The values below come from PubChem BioAssay (NCI).

SMILES strings stand for the structures. Values joined by “and” are separate entries in the source; they are usually repeats but may differ in a detail not shown here. Equal entries are not always repeated.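 1) Cells in 96-well plates. 2) Compound, 48 h, 5 concentrations. 3) Linear interpolation between surrounding doses. 4) Unreached endpoint = highest concentration. GI50 marks 50% less growth. Definition used: TGI = concentration required for complete inhibition of growth.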

Among the test systems are KM20L2 colon; SF-268 CNS; OVCAR-3 ovarian; CCRF-CEM leukemia; EKVX NSCLC; MCF7 breast; MDA-MB-231 breast; HS 578T breast; PC-3 prostate; DMS 114 small cell lung.
Test in all cases: growth of human tumour cells (NCI), 48 h

On to `COc1ccc(S(=O)(=O)Nc2ccccc2C(=O)O)cc1`, for which the TGI with KM20L2 colon, with SF-268 CNS, in the test on OVCAR-3 ovarian, in the test with CCRF-CEM leukemia and in the test on EKVX NSCLC was greater than 100 µM throughout.

Turning to `COc1cccc(-c2cc(=O)c3cc(OC)ccc3[nH]2)c1`, the GI50 in the test with MCF7 breast is 0.296 µM; in the test on SF-268 CNS it was 0.626 µM; with OVCAR-3 ovarian, 0.025 µM; in the test on CCRF-CEM leukemia it was 0.0281 µM; in the test with EKVX NSCLC, 5.85 µM; with PC-3 prostate, 0.112 µM. Moreover, the TGI was greater than 100 µM in the test with MCF7 breast; 24.2 µM with SF-268 CNS; 4.53 µM and 21.6 µM with MDA-MB-231 breast; 0.384 µM and 0.0812 µM in the test with OVCAR-3 ovarian; 0.248 µM in the test with CCRF-CEM leukemia; 0.885 µM with HS 578T breast. Moreover, the TGI in the test with EKVX NSCLC and with PC-3 prostate was greater than 100 µM throughout.

As to `COc1ccc(C(=O)/C=C/c2ccc(C)cc2)cc1OC`, the GI50 in the test on MCF7 breast is 3.09 µM; with SF-268 CNS it was 11.7 µM; in the test with MDA-MB-231 breast it was 14.3 µM; with OVCAR-3 ovarian it was 2.55 µM; with CCRF-CEM leukemia, 25.1 µM; with HS 578T breast, 12.5 µM. Also, the GI50 in the test on EKVX NSCLC is 18.4 µM; with PC-3 prostate, 15.4 µM. Further, the TGI with MCF7 breast amounted to 15.1 µM; in the test with SF-268 CNS, 24.4 µM; with MDA-MB-231 breast, 33.1 µM; in the test on OVCAR-3 ovarian, 12.7 µM; with CCRF-CEM leukemia it was 61.2 µM; with HS 578T breast it was 30.3 µM. Besides, the values for the TGI in the test on EKVX NSCLC and in the test with PC-3 prostate were 42.9 µM and 32.4 µM, respectively.

For the compound `CC(=O)[O][Ga]([Cl])[O]C(C)=O`, the GI50 in the test on KM20L2 colon, in the test on SF-268 CNS, in the test on DMS 114 small cell lung, with OVCAR-3 ovarian and in the test with CCRF-CEM leukemia was greater than 100 µM each time. Moreover, the TGI in the test on KM20L2 colon, with SF-268 CNS, in the test on DMS 114 small cell lung, with OVCAR-3 ovarian and in the test with CCRF-CEM leukemia was greater than 100 µM in each case.

For `COc1cc(C#Cc2ccc(=O)oc2C#Cc2ccccc2)cc(OC)c1OC`, the GI50 was 1.99 µM in the test on MCF7 breast; 2.38 µM with SF-268 CNS; 2.84 µM with MDA-MB-231 breast; 1.93 µM in the test with OVCAR-3 ovarian; 4.02 µM in the test with CCRF-CEM leukemia; 5.83 µM with HS 578T breast. Further, the GI50 is 5.32 µM with EKVX NSCLC and 4.13 µM in the test with PC-3 prostate. The TGI in the test with MCF7 breast is 4.86 µM; in the test on SF-268 CNS it was 5.85 µM; in the test with MDA-MB-231 breast it was 7.87 µM; in the test on OVCAR-3 ovarian it was 3.58 µM; with CCRF-CEM leukemia, greater than 100 µM; in the test on HS 578T breast it was 43.9 µM. In addition, the figures for the TGI with EKVX NSCLC and in the test with PC-3 prostate were 13.4 µM and 16.3 µM, respectively.

As to `O=C(CO[N+](=O)[O-])Nc1ccc(C(=O)/C=C/c2ccc(Cl)cc2)cc1`, the GI50 is 0.666 µM with MCF7 breast; 2.62 µM with SF-268 CNS; 5.39 µM in the test on MDA-MB-231 breast; 2.22 µM in the test with OVCAR-3 ovarian; 2.73 µM in the test on CCRF-CEM leukemia; 2.85 µM in the test on HS 578T breast. Moreover, the GI50 in the test with EKVX NSCLC is 15 µM; in the test on PC-3 prostate it was 2.74 µM. Moreover, the TGI with MCF7 breast amounted to 6.44 µM; with SF-268 CNS, 11.7 µM; in the test on MDA-MB-231 breast, 21.2 µM; in the test on OVCAR-3 ovarian, 6.55 µM; with CCRF-CEM leukemia, 16.5 µM; in the test on HS 578T breast it was 14.2 µM. In addition, the TGI with EKVX NSCLC turned out to be 74.6 µM; with PC-3 prostate, 14.8 µM.

For `Oc1[nH]c2ccccc2c1N=Nc1ccccn1`, the TGI in the test with MCF7 breast is greater than 100 µM; in the test with SF-268 CNS it was greater than 100 µM; in the test with MDA-MB-231 breast, 38.1 µM; in the test on OVCAR-3 ovarian, greater than 100 µM; in the test with CCRF-CEM leukemia, 58.8 µM; with HS 578T breast, greater than 100 µM. Also, the TGI in the test on EKVX NSCLC and in the test with PC-3 prostate was greater than 100 µM each time.

As for `CCC[CH2][Sn]1([CH2]CCC)[O]CC(Cc2ccccc2)[O]1` (centres undefined), the GI50 in the test on KM20L2 colon is 5.33 µM; with DMS 114 small cell lung, 1.72 µM; in the test on OVCAR-3 ovarian it was 2.34 µM; in the test with CCRF-CEM leukemia it was 1.22 µM; in the test with EKVX NSCLC, 2.39 µM. The TGI in the test on KM20L2 colon is 18.2 µM; in the test on DMS 114 small cell lung, 3.59 µM; with OVCAR-3 ovarian, 7.42 µM; in the test with CCRF-CEM leukemia, 4.57 µM; in the test with EKVX NSCLC, 8.77 µM.

For `CC(C(=O)c1ccccc1)C(c1ccccc1)N1CCOCC1` (centres undefined), the TGI in the test on MCF7 breast, in the test on SF-268 CNS, with MDA-MB-231 breast, in the test with OVCAR-3 ovarian, with CCRF-CEM leukemia and with HS 578T breast was greater than 100 µM each time. Also, the TGI in the test with EKVX NSCLC and with PC-3 prostate was greater than 100 µM in each case.

`COc1ccc2c(c1)C(=O)c1c-2n(CCCN=[N+]=[N-])c(=O)c2cc(OC)c(OC)cc12`: the GI50 with MCF7 breast is 81.4 µM; with SF-268 CNS, 79.4 µM; with MDA-MB-231 breast, greater than 100 µM; with OVCAR-3 ovarian, 49.2 µM; in the test on CCRF-CEM leukemia, 4.01 µM; in the test on HS 578T breast it was 70 µM. The values for the GI50 in the test with EKVX NSCLC and in the test with PC-3 prostate were greater than 100 µM and 50 µM, respectively. Also, the TGI with MCF7 breast is greater than 100 µM; in the test on SF-268 CNS, greater than 100 µM; in the test on MDA-MB-231 breast it was greater than 100 µM; in the test with OVCAR-3 ovarian, greater than 100 µM; in the test with CCRF-CEM leukemia, 16.4 µM; in the test on HS 578T breast it was greater than 100 µM. Further, the TGI in the test with EKVX NSCLC and with PC-3 prostate was greater than 100 µM throughout.

For the compound `Cc1ccc(NC(=O)C2C(=O)N(c3ccc(C)cc3)C(=O)/C2=N\NC(N)=S)cc1` (centres undefined), the TGI in the test on KM20L2 colon, in the test on SF-268 CNS, in the test on DMS 114 small cell lung, in the test on OVCAR-3 ovarian and in the test on EKVX NSCLC was greater than 100 µM throughout.
